Test results: ChEMBL document CHEMBL5230155, “Recent contributions of quinolines to antimalarial and anticancer drug discovery research” (Eur J Med Chem, 2021)

What was measured:
MDA-MB-453 = assay: Antiproliferative activity against human MDA-MB-453 cells; assay type: functional, cell-based
RT-112 = assay: Antiproliferative activity against human RT-112 cells; assay type: functional, cell-based
SNU-423 = assay: Antiproliferative activity against human SNU-423 cells; assay type: functional, cell-based
RPMI-8226 [1] = assay: Induction of apoptosis in human RPMI-8226 cells assessed as fold increase in caspase-3 level; assay type: functional
RPMI-8226 [2] = assay: Cytotoxicity against human RPMI-8226 cells; assay type: functional, cell-based
RPMI-8226 [3] = assay: Induction of apoptosis in human RPMI-8226 cells assessed as fold increase in cytochrome c level; assay type: functional
HCT-116 = assay: Cytotoxicity against human HCT-116 cells; assay type: functional, cell-based
[4] = target: Alkaline phosphatase, germ cell type (Homo sapiens, UniProt P10696); assay: Inhibition of human germ cell alkaline phosphatase
Alkaline phosphatase, germ cell type, sequence (P10696 whole entry): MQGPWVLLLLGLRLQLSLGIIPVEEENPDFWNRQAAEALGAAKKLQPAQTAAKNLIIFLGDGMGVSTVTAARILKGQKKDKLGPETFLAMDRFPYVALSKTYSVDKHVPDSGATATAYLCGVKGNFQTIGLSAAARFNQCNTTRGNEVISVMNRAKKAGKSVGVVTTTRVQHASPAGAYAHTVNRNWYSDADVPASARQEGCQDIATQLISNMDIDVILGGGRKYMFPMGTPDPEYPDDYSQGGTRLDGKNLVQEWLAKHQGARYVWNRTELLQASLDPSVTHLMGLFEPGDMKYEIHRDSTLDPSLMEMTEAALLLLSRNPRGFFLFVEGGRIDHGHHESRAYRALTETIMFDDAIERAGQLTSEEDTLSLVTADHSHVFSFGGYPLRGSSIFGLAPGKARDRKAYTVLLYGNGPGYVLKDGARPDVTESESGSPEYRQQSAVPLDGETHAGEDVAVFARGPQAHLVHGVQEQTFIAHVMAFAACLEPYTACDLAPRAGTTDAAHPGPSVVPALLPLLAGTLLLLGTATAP

Plasmodium falciparum [5] = assay: Antimalarial activity against CQ-sensitive Plasmodium falciparum 3D7; assay type: functional, organism-based
[6] = Selectivity index, ratio of IC50 for African green monkey Vero cells to IC50 for CQ sensitive Plasmodium falciparum 3D7; assay type: toxicity; settings: read-out: Ratio IC50
Plasmodium falciparum [7] = assay: Antimalarial activity against CQ-resistant Plasmodium falciparum RKL-9; assay type: functional, organism-based
[8] = Cytotoxicity against african green monkey Vero cells; assay type: toxicity, cell-based; settings: African green monkey (Chlorocebus sabaeus)
[9] = Inhibition of PI3K (unknown origin); set-up: species or system Homo sapiens
Plasmodium falciparum [10] = assay: Antimalarial activity against Plasmodium falciparum 3D7; assay type: functional, organism-based
Plasmodium falciparum [11] = assay: Antimalarial activity against multidrug resistant Plasmodium falciparum Dd2; assay type: functional, organism-based
Plasmodium falciparum [12] = assay: Antimalarial activity against multidrug resistant Plasmodium falciparum K1; assay type: functional, organism-based
HeLa = assay: Antiproliferative activity against human HeLa cells; assay type: functional, cell-based
MCF7 = assay: Antiproliferative activity against human MCF7 cells; assay type: functional, cell-based; settings: Homo sapiens, MCF7
DLD-1 = assay: Antiproliferative activity against human DLD-1 cells; assay type: functional, cell-based
Hemozoin = assay: Inhibition of beta-hematin formation relative to control; settings: concentration not given here
Plasmodium falciparum [13] = test system: Plasmodium falciparum
Description: Antimalarial activity against CQ-sensitive Plasmodium falciparum NF54

A549 = assay: Cytotoxicity against human A549 cells; assay type: functional, cell-based
G-361 = assay: Antiproliferative activity against human G-361 cells; assay type: functional, cell-based; settings: read-out: IC50
[14] = target: T1, Tyrosine-protein kinase receptor UFO (Homo sapiens, UniProt P30530); assay: Inhibition of AXL (unknown origin)
T1 sequence (P30530 whole entry): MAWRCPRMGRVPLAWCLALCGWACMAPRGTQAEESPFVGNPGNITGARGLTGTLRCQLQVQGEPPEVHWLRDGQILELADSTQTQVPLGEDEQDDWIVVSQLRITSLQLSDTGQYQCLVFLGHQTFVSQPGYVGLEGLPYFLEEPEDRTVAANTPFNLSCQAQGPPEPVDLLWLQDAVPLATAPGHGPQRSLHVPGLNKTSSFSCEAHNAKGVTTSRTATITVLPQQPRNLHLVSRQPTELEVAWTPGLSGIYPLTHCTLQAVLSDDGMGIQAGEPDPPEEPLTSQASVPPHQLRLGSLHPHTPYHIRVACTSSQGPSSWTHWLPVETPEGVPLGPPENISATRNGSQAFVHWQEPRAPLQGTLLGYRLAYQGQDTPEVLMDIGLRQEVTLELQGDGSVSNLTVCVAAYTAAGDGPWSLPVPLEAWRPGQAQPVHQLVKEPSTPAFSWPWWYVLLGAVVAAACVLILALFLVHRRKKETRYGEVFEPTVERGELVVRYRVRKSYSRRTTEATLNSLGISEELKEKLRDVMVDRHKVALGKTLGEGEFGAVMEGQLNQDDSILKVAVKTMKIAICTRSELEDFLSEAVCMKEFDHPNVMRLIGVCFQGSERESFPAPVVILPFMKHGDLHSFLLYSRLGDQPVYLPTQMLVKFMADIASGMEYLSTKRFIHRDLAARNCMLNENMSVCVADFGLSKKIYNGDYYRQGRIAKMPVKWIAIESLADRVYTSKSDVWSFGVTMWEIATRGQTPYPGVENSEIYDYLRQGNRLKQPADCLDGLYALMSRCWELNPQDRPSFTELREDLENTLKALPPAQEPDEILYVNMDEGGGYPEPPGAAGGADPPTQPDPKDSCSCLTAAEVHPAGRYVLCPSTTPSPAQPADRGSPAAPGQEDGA

Hep 3B2 = assay: Cytotoxicity against human Hep3B cells assessed as relative value at 15 uM after 48 hrs by MTS method; assay type: functional

COc1cc(N(CCCSC(=S)N2CCN(C)CC2)S(=O)(=O)c2cccc3cccnc23)cc(OC)c1OC
IC50 (MDA-MB-453): 700 nM | IC50 (RT-112): 700 nM | IC50 (SNU-423): 700 nM

COc1nc2ccccc2cc1/C=[N+](\[O-])c1ccccc1
fold change (FC) (RPMI-8226 [1]): 12 | IC50 (RPMI-8226 [2]): 450 nM | fold change (FC) (RPMI-8226 [3]): 4 | IC50 (HCT-116): 450 nM

O=C(Nc1nc2ccccc2s1)c1cc(O)nc2ccc(O)cc12
IC50 [4]: < 75 nM

O=C(Cn1cc(COc2ccc(Br)cc2)nn1)NCCCNc1ccnc2cc(Cl)ccc12
IC50 (Plasmodium falciparum [5]): 38.8 nM | selectivity ratio [6]: 714 | IC50 (Plasmodium falciparum [7]): 16 nM | IC50 [8]: > 5000 nM

O=C(Cn1cc(COc2ccc(Cl)cc2)nn1)NCCNc1ccnc2cc(Cl)ccc12
IC50 (Plasmodium falciparum [5]): 38.8 nM | selectivity ratio [6]: 714 | IC50 (Plasmodium falciparum [7]): 75 nM | IC50 [8]: > 5000 nM

CC(=O)c1cccc(C#Cc2c(C3CC3)nc3ccccc3c2-c2ccc(F)cc2)c1
IC50 [9]: 450 nM

Cc1ccc2nc(SCc3ccccc3)c(/C=[N+](\[O-])c3ccccc3)cc2c1
fold change (FC) (RPMI-8226 [1]): 12 | IC50 (RPMI-8226 [2]): 450 nM | fold change (FC) (RPMI-8226 [3]): 4 | IC50 (HCT-116): 450 nM

COC[C@H]1OC(=O)c2coc3c2[C@@]1(C)C1=C(C3=O)[C@@H]2CCC(=O)[C@@]2(C)C[C@H]1OC(C)=O [WORTMANNIN]
IC50 [9]: 750 nM

C[C@@H]1CC[C@H]2[C@@H](C)C(=O)O[C@@H]3O[C@@]4(C)CC[C@@H]1[C@]32OO4 [ARTEMISININ]
EC50 (Plasmodium falciparum [10]): 5.4 nM | EC50 (Plasmodium falciparum [11]): 5.4 nM | EC50 (Plasmodium falciparum [12]): 5.4 nM

O=C(Cn1cc(COc2ccc(Br)cc2)nn1)NCCNc1ccnc2cc(Cl)ccc12
IC50 (Plasmodium falciparum [5]): 38.8 nM | selectivity ratio [6]: 714 | IC50 (Plasmodium falciparum [7]): 2.94 nM | IC50 [8]: > 5000 nM

COc1ccc2nc(Cl)c(C3CC(c4ccc(C)cc4)=NN3c3nc(-c4ccc(Cl)cc4)cs3)cc2c1 (centres undefined)
IC50 (HeLa): 38 nM | IC50 (MCF7): 38 nM | IC50 (DLD-1): 38 nM

CCONC(=O)c1sc(N2N=C(c3ccc(C)cc3)CC2c2cc3cc(OC)ccc3nc2Cl)nc1C (centres undefined)
IC50 (HeLa): 38 nM | IC50 (MCF7): 38 nM | IC50 (DLD-1): 38 nM

COc1ccc2nc(Cl)c(C3CC(c4ccc(C)cc4)=NN3c3nc(C)c(/N=N/c4ccccc4)s3)cc2c1 (centres undefined)
IC50 (HeLa): 38 nM | IC50 (MCF7): 38 nM | IC50 (DLD-1): 38 nM

COc1ccc2nc(Cl)c(/C=C/C(=O)c3ccc(OC)c(OC)c3OC)cc2c1
inhibition (Hemozoin): 61.3%

Clc1ccc2c(N3CC(CN4CCOCC4)N=N3)ccnc2c1 (centres undefined) [listing 1 of 2 here]
IC50 (Plasmodium falciparum [13]): 4560 nM

C#CCCCN(CCNc1ccnc2cc(Cl)ccc12)C(=O)CCC(=O)O[C@@H]1O[C@@H]2O[C@@]3(C)CC[C@H]4[C@H](C)CCC([C@H]1C)[C@@]24OO3 (some centres undefined)
EC50 (Plasmodium falciparum [10]): 0.78 nM | EC50 (Plasmodium falciparum [11]): 0.78 nM | EC50 (Plasmodium falciparum [12]): 0.78 nM

NC(=O)c1cnc2ccc(-c3cnc4ccccc4c3)cc2c1Nc1ccc(N2CCNCC2)c(C(F)(F)F)c1
GI50 (A549): 2800 nM | GI50 (HCT-116): 2800 nM

COc1ccc2ccc(F)c(CC(=O)N/N=C/c3cc(OC)c(OC)c(OC)c3)c2n1
IC50 (MCF7): 2070 nM | IC50 (G-361): 2070 nM

COc1cc2c(Oc3ccc(NS(=O)(=O)c4c(F)cccc4F)cc3F)ccnc2cc1OCCCN1CCN(C)CC1
IC50 [14]: 27 nM

CC(=O)c1ccc(C#Cc2c(C3CC3)nc3ccccc3c2-c2ccc(F)cc2)cc1
IC50 [9]: 450 nM

Clc1ccc2c(N3CC(CN4CCOCC4)N=N3)ccnc2c1 (centres undefined) [listing 2 of 2 here]
IC50 (Plasmodium falciparum [13]): 206 nM

COc1cc2c(Oc3ccc(NS(=O)(=O)c4ccccc4OC(F)(F)F)cc3F)ccnc2cc1OCCCN1CCN(C)CC1
IC50 [14]: 27 nM

O=S(=O)(Oc1cccc2cccnc12)c1ccc(CBr)cc1
fold change (FC) (Hep 3B2): 0.25

[O-]/[N+](=C\c1cc2ccccc2nc1SCc1ccccc1)c1ccccc1
fold change (FC) (RPMI-8226 [1]): 12 | IC50 (RPMI-8226 [2]): 450 nM | fold change (FC) (RPMI-8226 [3]): 4 | IC50 (HCT-116): 450 nM

O=C(Cn1cc(-c2ccccc2)nn1)NCCCNc1ccnc2cc(Cl)ccc12
IC50 (Plasmodium falciparum [5]): 38.8 nM | IC50 [8]: > 5000 nM

CNS(=O)(=O)Nc1nccc(Cc2c(C)c3ccc(Oc4ncccn4)cc3oc2=O)c1F [AVUTOMETINIB]
GI50 (A549): 3230 nM
